Measurements published in patent US8673849B2, “Lactadherin-derived peptides as antiviral agents” (priority 2010, dated 2014).
Where a SMILES comes first, the peptide text is derived from it. Where no end group is shown, it is not given here.

B1: human lactadherin: purified human lactadherin, glycoprotein of milk fat globule membranes, 387 amino acids (protein, UniProt Q08431 24-387, looked up)
Lactadherin: LDICSKNPCHNGGLCEEISQEVRGDVFPSYTCTCLKGYAGNHCETKCVEPLGLENGNIANSQIAASSVRVTFLGLQHWVPELARLNRAGMVNAWTPSSNDDNPWIQVNLLRRMWVTGVVTQGASRLASHEYLKAFKVAYSLNGHEFDFIHDVNKKHKEFVGNWNKNAVHVNLFETPVEAQYVRLYPTSCHTACTLRFELLGCELNGCANPLGLKNNSIPDKQITASSSYKTWGLHLFSWNPSYARLDKQGNFNAWVAGSYGNDQWLQVDLGSSKEVTGIITQGARNFGSVQFVASYKVAYSNDSANWTEYQDPRTGSSKIFPGNWDNHSHKKNLFETPILARYVRILPVAWHNRIALRLELLGC
B2: bovine lactadherin: bovine lactadherin, glycoprotein of milk fat globule membranes, 427 amino acid residues (protein, UniProt Q95114 19-427, looked up)
Lactadherin: ASGDFCDSSLCLHGGTCLLNEDRTPPFYCLCPEGFTGLLCNETEHGPCFPNPCHNDAECQVTDDSHRGDVFIQYICKCPLGYVGIHCETTCTSPLGMQTGAIADSQISASSMHLGFMGLQRWAPELARLHQTGIVNAWTSGNYDKNPWIQVNLMRKMWVTGVVTQGASRAGSAEYLKTFKVAYSTDGRQFQFIQVAGRSGDKIFIGNVNNSGLKINLFDTPLETQYVRLVPIICHRGCTLRFELLGCELNGCTEPLGLKDNTIPNKQITASSYYKTWGLSAFSWFPYYARLDNQGKFNAWTAQTNSASEWLQIDLGSQKRVTGIITQGARDFGHIQYVAAYRVAYGDDGVTWTEYKDPGASESKIFPGNMDNNSHKKNIFETPFQARFVRIQPVAWHNRITLRVELLGC

Key:
[1] = test system: human rotavirus strain Wa; assay type: cell-based; details: for anti-rotavirus activity (in words): statement on Table 6
Protocol: To cultivate the rotavirus, the cell line MA-104 (monkey foetal kidney cells), obtained from the Cell Substrata Centre of the Experimental Animal Disease Institute, Brescia, Italy, was used. This cell line is cultured as a monolayer in EAGLE minimum essential medium (MEM) containing 5% heat-inactivated (56° C. for 30 minutes) bovine foetal serum (Sigma) and is maintained at 37° C. at 5% CO2.
For the in vitro infection assay, the cell line MA-104 and the human rotavirus strain Wa (TC adapted), obtained from the American Type Culture Collection (ATCC VR-2018) and propagated in MA-104 cells, were used.
To set up the assay, cells were seeded in 96-well plates and, once 80% confluence was achieved, were pre-treated for 1 hour with increasing concentrations of RGD- and/or DGE-containing peptides or their mutated counterparts and incubated at 37° C. The peptides containing the RGD or the DGE motif were used either alone or in combination. Cells were then washed with medium and infected with the pre-activated virus (5 μg/ml tripsin for 30 minutes at 37° C.) in the presence of the peptides. After a 1 hour incubation cells were washed with medium and incubated in medium containing 0.5 μg/ml tripsin and the peptides at 37° C. for 20 hours. The infected cells were visualised through an immunoperoxidase assay, using murine monoclonal antibodies specific for the capsidic protein VP6 of the rotavirus (Abcam) and the kit “UltraTech HRP Streptavidin-Biotin detection system” (Beckman Coulter). The infected cells were counted by observation under the optical microscope and the percentage of infection calculated by comparison of treated with non-treated cells.

[2] = test system: simian rotavirus strain SA11; details: MA104 cells, dose-dependent; Graham et al.; cited from earlier work
[3] = target: integrin proteins on the cell surface
[4] = target: integrin proteins on the cell surface; remark: listed apart in the source
modified porcine trypsin = target: T1, modified porcine trypsin (Sus scrofa, UniProt P00761); assay type: in vitro ADME
T1 construct: purchased Promega
Protocol: The peptide SEQ ID NO: 1 was dissolved in ultra pure H2O to obtain a final concentration of 10 mg/ml. Dilutions from 1:10 to 1:10,000 were obtained. All concentrations were tested by MALDI-TOF analyses. 0.5 μl of samples from dilutions 1:10, 1:100, 1:1,000, 1:10,000 were spotted onto a MALDI target plate and left to dry at RT. 0.5 μl of α-cyano-4-hydroxy-cinnamic acid in 30% acetonitrile, 0.1% TFA (HCCA matrix solution) were added to each sample and left to dry under vacuum. Spectra were obtained using a Bruker Ultraflex II MALDI-TOF/TOF mass spectrometer (Bruker Daltonics) in reflectron and positive ion mode. External calibration was performed using “Peptide calibration standard” from Bruker Daltonics.
To evaluate the digestibility of the SEQ ID NO: 1 peptide with trypsin, […] of a 0.2 μg/μl solution (25 mM NH4HCO3) of modified porcine trypsin (Promega) were added to 150 μl of the 10 mg/ml peptide solution ((25 mM NH4HCO3) enzyme to protein ratio 1:100). The sample was incubated at 37° C. and 0.5 μl were collected at different time of digestion: 5′, 15′, 30′, 60′ 90′ 120′. Each samples was spotted on MALDI target and spectra were collected as already described in Example 4a. In FIG. 5 the time course experiment evaluated by MALDI TOF analyses is shown.

[5] = target: integrin proteins on the cell surface; remark: listed apart in the source
[6] = target: integrin proteins on the cell surface; remark: listed apart in the source
[7] = target: integrin proteins on the cell surface; remark: listed apart in the source
rotavirus = details: purified lactadherin; Kvistgaard et al., 2004; cited from earlier work

T1 sequence (P00761 9-231): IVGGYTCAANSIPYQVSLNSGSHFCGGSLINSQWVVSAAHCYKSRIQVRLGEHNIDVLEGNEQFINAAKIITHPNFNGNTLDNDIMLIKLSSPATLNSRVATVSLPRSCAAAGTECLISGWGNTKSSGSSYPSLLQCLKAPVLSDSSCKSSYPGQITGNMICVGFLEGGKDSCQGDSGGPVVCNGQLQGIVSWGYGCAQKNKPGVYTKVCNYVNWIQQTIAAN

| Molecule | IC50 [1] [µM] | IC50 (μg/ml) [1] [µg/mL] | IC50 (µg/ml), inhibition of human rotavirus Wa infection of MA-104 cells [3] [µg/mL] | other results |
| --- | --- | --- | --- | --- |
| C[C@H](NC(=O)[C@H](CCC(=O)O)NC(=O)CNC(=O)[C@@H](N)CC(=O)O)C(=O)O [DGEA, D-G-E-A, reference compound] (H-DGEA-OH; N-terminus and C-terminus assumed) | 311 | 121.4 |  | inhibition of rotavirus binding to and infection of cells (in words) [2]: inhibit |
| Control peptide D-G-E-A (Graham et al.) |  |  | 121 | IC50 (µM), inhibition of human rotavirus Wa infection of MA-104 cells [3]: 311 µM |
| Dendrimeric peptide of formula (VII): [[(HRGDVFT)2-Lys][(NDGECHV)2-Lys]]-Lys-β-Ala-NH2 |  |  |  | IC50, inhibition of rotavirus infection, infected cells counted by immunoperoxidase [4]: 3.6 µM |
| EVRGDVFP [Hu-RGD, E-V-R-G-D-V-F-P, reference compound] | 104 | 95.3 |  |  |
| GPRP |  |  |  | inhibition of rotavirus binding to and infection of cells (in words) [2]: inhibit |
| NNDGECHVIDDSHRGDVFTQ [SEQ ID NO: 7] | 13.5 | 30.51 |  | anti-rotavirus activity (in words) [1]: show antiviral activity |
| QNAGECHV [pAGE, Q-N-A-G-E-C-H-V, reference compound] | 257 | 219.6 |  |  |
| QNAGECHVIDDSHRGEVFTQ [SEQ ID NO: 10] | > 220 | >500 |  | anti-rotavirus activity (in words) [1]: completely lost any anti-rotavirus activity |
| QNDGECHV [SEQ ID NO: 3, Q-N-D-G-E-C-H-V] | 17.3 | 15.6 |  |  |
| QNDGECHVIDDSDRGDVFTQ [SEQ ID NO: 11] | 10.5 | 23.90 |  | anti-rotavirus activity (in words) [1]: maintains its anti-rotavirus activity |
| QNDGECHVIDDSHRGDVFQT [SEQ ID NO: 9] | 4.17 | 9.469 |  | anti-rotavirus activity (in words) [1]: show antiviral activity |
| QNDGECHVIDDSHRGDVFSQ [SEQ ID NO: 8] | 6.35 | 14.43 |  | anti-rotavirus activity (in words) [1]: show antiviral activity |
| QNDGECHVIDDSHRGDVFTQ [SEQ ID NO: 1, QNDGECHVIDDSHRGDVFTQ] | 1.72 | 3.9 |  | integrity of the peptide on trypsin digestion (modified porcine trypsin): didn't affect the integrity |
| SHRGDVFI [Bo-RGD, S-H-R-G-D-V-F-I, reference compound] | 395 | 367.1 |  |  |
| SHRGDVFT [SEQ ID NO: 5, S-H-R-G-D-V-F-T] | 111 | 101.5 |  |  |
| SHRGEVFT [pRGE, S-H-R-G-E-V-F-T, reference compound] | 600 | 558.5 |  |  |
| pAGE: Q-N-A-G-E-C-H-V (DGE -> AGE mutation) (peptide) |  |  | 220 | IC50 (µM), inhibition of human rotavirus Wa infection of MA-104 cells [3]: 257 µM |
| pRGE: S-H-R-G-E-V-F-T (RGD -> RGE mutation) (peptide) |  |  | 558 | IC50 (µM), inhibition of human rotavirus Wa infection of MA-104 cells [3]: 600 µM |
| SHRGDVFT (not fully specified) [peptidic compound of SEQ ID NO: 5 (S-H-R-G-D-V-F-T)] |  |  | 102 | % of inhibition of rotavirus infection at 100 µg/ml (93.3 µM), one representative experiment (% of inhibition) [5]: 46.9; IC50 (µM), inhibition of human rotavirus Wa infection of MA-104 cells, infected cells counted by immunoperoxidase [3]: 111 µM |
| QNDGECHVIDDSHRGDVFTQ (not fully specified) [peptidic compound of SEQ ID NO: 1 (QNDGECHVIDDSHRGDVFTQ)] |  |  | 3.9 | % of inhibition of rotavirus infection at 100 µg/ml (36.6 µM), one representative experiment (% of inhibition) [6]: 61; IC50 (µM), inhibition of human rotavirus Wa infection of MA-104 cells [3]: 1.72 µM |
| QNDGECHV (not fully specified) [peptidic compound of SEQ ID NO: 3 (Q-N-D-G-E-C-H-V)] |  |  | 15.6 | % of inhibition of rotavirus infection at 100 µg/ml (96.6 µM), one representative experiment (% of inhibition) [7]: 52.7; IC50 (µM), inhibition of human rotavirus Wa infection of MA-104 cells [3]: 17.3 µM |
| SHRGDVFI (not fully specified) [Bo-RGD: S-H-R-G-D-V-F-I] |  |  | 367 | IC50 (µM), inhibition of human rotavirus Wa infection of MA-104 cells [3]: 395 µM |
| EVRGDVFP (not fully specified) [Hu-RGD: E-V-R-G-D-V-F-P] |  |  | 95.3 | IC50 (µM), inhibition of human rotavirus Wa infection of MA-104 cells [3]: 104 µM |
| B1 |  |  |  | activity against rotavirus infection (in words) (rotavirus): active against rotavirus infection |
| B2 |  |  |  | activity against rotavirus infection (in words) (rotavirus): does not possess this activity |
